Tests used:
[1] = system: Hippocampal Total A-beta; test: In vivo suppression of β-amyloid, brain assay (hippocampal total A-beta ELISA); conditions: young heterozygous PDAPP mice, sacrifice 3 hours post-administration
Method: (§1) This example illustrates how the compounds of this invention could be tested for in vivo suppression of β-amyloid release and/or synthesis. For these experiments, 3 to 4 month old PDAPP mice are used [Games et al., (1995) Nature 373:523-527]. Depending upon which compound is being tested, the compound is usually formulated at between 1 and 10 mg/mL. Because of the low solubility factors of the compounds, they may be formulated with various vehicles, such as corn oil; 10% ethanol in corn oil; 2-hydroxypropyl-β-cyclodextrin (Research Biochemicals International, Natick, Mass.); and carboxy-methyl-cellulose (Sigma Chemical Co., St. Louis, Mo.).
For acute efficacy studies, PDAPP mice are dosed orally by gavage and 3 hours later the animals are euthanized via CO2 narcosis. For sub-chronic studies, PDAPP mice are dosed once-a-day or twice-a-day for 7 days, and sacrificed 3 hours after the last dose. Blood is taken by cardiac puncture using a 1 cc 25G ⅝″ tuberculin syringe/needle coated with solution of 0.5 M EDTA, pH 8.0. The blood is placed in a Becton-Dickinson vacutainer tube containing EDTA and spun down for 15 minutes at 1500×g at 5° C. The brains of the mice are then removed and the cortex and hippocampus are dissected out, placed in labeled eppendorf tubes and rapidly frozen on dry ice.
To prepare hippocampal and cortical tissue for enzyme-linked immunosorbent assays (ELISAs) each brain region is homogenized in 10 volumes of ice cold guanidine buffer (5.0 M guanidine-HCl, 50 mM Tris-HCl, pH 8.0) using a Polytron. The homogenates are gently rocked on a rotating platform for three to four hours at room temperature and stored at −20° C. prior to quantitation of β-amyloid.
The brain homogenates are diluted 1:10 with ice-cold casein buffer [0.25% casein, phosphate buffered saline (PBS), 0.05% sodium azide, 20 μg/ml aprotinin, 5 mM EDTA, pH 8.0, 10 μg/ml leupeptin], thereby reducing the final concentration of guanidine to 0.5 M, before centrifugation at 16,000×g for 20 minutes at 4° C. Samples are further diluted, if necessary, to achieve an optimal range for the ELISA measurements by the addition of casein buffer with 0.5 M guanidine hydrochloride added. The β-amyloid standards (1-40 or 1-42 amino acids) are prepared such that the final composition equaled 0.5 M guanidine in the presence of 0.1% bovine serum albumin (BSA).
The Total β-amyloid 1-x sandwich ELISA, quantitating essentially all species of β-amyloid (including β-amyloid 1-40 and β-amyloid 1-42), employs two monoclonal antibodies (mAb) to β-amyloid. The capture antibody, 266 [P. Seubert, Nature (1992) 359:325-327], is specific to amino acids 13-28 of β-amyloid. The antibody 3D6 [Johnson-Wood et al., PNAS USA (1997) 94:1550-1555], which is specific to amino acids 1-5 of β-amyloid, is biotinylated and served as the reporter antibody in the assay. The 3D6 biotinylation procedure employs the manufacturer's (Pierce, Rockford, Ill.) protocol for NHS-biotin labeling of immunoglobulins except that 100 mM sodium bicarbonate, pH 8.5 buffer is used.
The 266 and 21F12 capture mAbs are coated at 10 μg into 96-well immunoassay plates (Costar, Cambridge, Mass.) overnight at room temperature. The plates are then aspirated and blocked with 0.25% human serum albumin in PBS buffer for at least 1 hour at room temperature, then stored desiccated at 4° C. until use. The plates are rehydrated with wash buffer (Tris-buffered saline, 0.05% Tween 20) prior to use. […]

[2] = system: β-amyloid peptide production in 293 751 SWE cells (HEK293 transfected with APP751 Swedish mutation); test: In vitro inhibition of β-amyloid production (ELISA, 293 751 SWE cells); format: cell-based, human; conditions: two hour incubation, n = 3
Method: This screening assay employed cells (HEK293=human kidney cell line) which were stably transfected with the gene for amyloid precursor protein 751 (APP751) containing the double mutation Lys651Met652 to Asn651Leu652 (APP751 numbering) in the manner described in International Patent Application Publication No. 94/10569. This mutation is commonly called the Swedish mutation and the cells, designated as “293 751 SWE”, were plated in Corning 96-well plates at 2-4×10^4 cells per well in Dulbecco's minimal essential media (Sigma, St. Louis, Mo.) plus 10% fetal bovine serum. Cell number is important in order to achieve β-amyloid ELISA results within the linear range of the assay (˜0.03 to 1.0 ng per mL).
Following overnight incubation at 37° C. in an incubator equilibrated with 5% carbon dioxide, media are removed and replaced with a stock solution of test compound (200 μL per well) for a two hour incubation period.
At the end of the incubation period, 100 μL from each well, of conditioned media or appropriate dilutions thereof are transferred into an ELISA plate pre-coated with antibody 266 [P. Seubert, Nature (1992) 359:325-327] against amino acids 13-28 of β-amyloid peptide as described in International Patent Application Publication No. 94/10569 and stored at 4° C. overnight. An ELISA assay employing labeled antibody 3D6 [P. Seubert, Nature (1992) 359:325-327] against amino acids 1-5 of β-amyloid peptide is run the next day to measure the amount of β-amyloid peptide produced. The results of the β-amyloid peptide ELISA are fit to a standard curve and expressed as ng/mL β-amyloid peptide and the concentration of test compounds producing 50% inhibition (IC50) of β-amyloid peptide production are estimated using a four parameter logistic model within Graph Pad Prism (San Diego, Calif.).

[3] = system: plasma A-beta; test: In vivo suppression of β-amyloid, blood assay (plasma total β-amyloid ELISA); set-up: species or system PDAPP mice; conditions: 3 mg/kg b.i.d. for 7 days; p<0.001 relative to vehicle control
Method: as §1
For acute efficacy studies, PDAPP mice are dosed orally by gavage and 3 hours later the animals are euthanized via CO2 narcosis. For sub-chronic studies, PDAPP mice are dosed once-a-day or twice-a-day for 7 days, and sacrificed 3 hours after the last dose. […]
The Total β-amyloid 1-x sandwich ELISA, quantitating essentially all species of β-amyloid (including β-amyloid 1-40 and β-amyloid 1-42), employs two monoclonal antibodies (mAb) to β-amyloid. […]
The 266 and 21F12 capture mAbs are coated at 10 μg into 96-well immunoassay plates (Costar, Cambridge, Mass.) overnight at room temperature. […] Reaction product is quantified using a Molecular Devices Vmax (Molecular Devices, Menlo Park, Calif.) measuring the difference in absorbance at 450 nm and 650 nm. […]

With `CC(C)[C@H](O)C(=O)N[C@@H](C)C(=O)N[C@H]1C=C(c2ccccc2)C=CN(C)C1=O` (single isomer, unassigned) [1 (diasteromer 2)] the “Hippocampal Total A-beta % REDUCTION” value ([1]; 0.1 mg/kg oral, n = 1 experiment) was 18%, the “Hippocampal Total A-beta % REDUCTION” value ([1]; 0.3 mg/kg oral, mean ± SD, n = 2 experiments) was 31 ± 13% and the “Hippocampal Total A-beta % REDUCTION” value ([1]; 1 mg/kg oral, mean ± SD, n = 3 experiments) was 48 ± 11%. For the same compound, the “Hippocampal Total A-beta % REDUCTION” value ([1]; 3 mg/kg oral, mean ± SD, n = 5 experiments) was 59 ± 5%, the “Hippocampal Total A-beta % REDUCTION” value ([1]; 10 mg/kg oral, n = 1 experiment) was 69% and the IC50 ([2]; Homo sapiens, HEK293, 2 h) was 5 ± 0.7 nM. For the same compound, the “reduction of plasma A-beta” value [3] was 54%.
Work on `CC(C)C1=CC(NC(=O)[C@H](C)NC(=O)[C@@H](O)C(C)C)C(=O)N(C)C=C1` (single isomer, unassigned) [3 (diastereomer 1)] yielded an IC50 [2] of 10700 ± 1800 nM.
`CC(C)[C@H](F)C(=O)N[C@@H](C)C(=O)NC1C=C(c2ccccc2)C=CN(C)C1=O` (single isomer, unassigned) [2 (diastereomer 2)] showed an IC50 [2] of 8 ± 0.8 nM.
Compound `CC(C)[C@H](F)C(=O)N[C@@H](C)C(=O)NC1C=C(c2ccccc2)C=CN(C)C1=O` (single isomer, unassigned) [2 (diastereomer 1)] has an IC50 [2] of 3330 ± 430 nM.
With `CC(C)C1=CC(NC(=O)[C@H](C)NC(=O)[C@@H](O)C(C)C)C(=O)N(C)C=C1` (single isomer, unassigned) [3 (diastereomer 2)] the IC50 [2] was 36 ± 1 nM.

— US8188069B2, “Azepine derivatives as gamma-secretase inhibitors” (Eli Lilly and Company, priority 2007, dated 2012)
